Measured values from PMC5844890 (Scientific Reports, 2018).
Read-outs that look alike come from different tables or passages of the source.

Experiments:
A2780 cells = assay: Anti-proliferative activity, A2780 ovarian carcinoma cells; format: cell-based, human; conditions: Homo sapiens, A2780; mean ± standard error of three independent experiments
From the text: (§1) One of the most relevant causes of tumor resistance to chemotherapy is the overexpression of membrane pumps which remove the chemotherapeutic agents from the treated cells.

HMEC-1 cells [1] = assay: Anti-proliferative activity, HMEC-1 microvascular endothelial cells (Coulter counting); format: cell-based; conditions: Homo sapiens, HMEC-1, 96 h; mean ± SD of three independent experiments; 4 days; read-out: Endothelial cells IC50 HMEC-1
From the text: (§2) The anti-proliferative activity of the synthesized benzofurane derivatives was studied in three human cancer cell lines [breast carcinoma (MDA-MB-231), lymphoblastic leukemia (CEM) and cervical carcinoma (HeLa) cells] and one endothelial cell line [human microvascular endothelial cells (HMEC-1)].
(§3) The human microvascular endothelial cell line HMEC-1 was obtained at passage 12 from the Centers for Disease Control and Prevention (Atlanta, GA, USA) and used from passage 17 till 27. Human breast carcinoma (MDA-MB-231), human cervical carcinoma (HeLa) and human T-lymphoid (CEM) cells were obtained from ATCC (Middlesex, UK). Cell lines were maintained in culture for up to 3 months and grown in DMEM, supplemented with 10% FBS, 0.01 M Hepes and 1 mM sodium pyruvate. All cells were cultured in a humidified 5% CO2 incubator at 37 °C.
(§4) HMEC-1 cells were seeded in 48-well plates at 20,000 cells/well. After 24 h, 5-fold dilutions of the compounds were added. The cells were allowed to proliferate 4 days in the presence of the compounds, trypsinized, and counted by means of a Coulter counter (Analis, Belgium). HeLa and MDA-MB-231 cells were seeded in 48-well plates at 10,000 cells/well. After 24 h, different concentrations of the compounds were added. After 3 days of incubation, the cells were trypsinized and counted in a Coulter counter. Suspension cells (human lymphoid Cem cells) were seeded in 96-well plates at 60,000 cells/well in the presence of different concentrations of the compounds, allowed to proliferate for 96 h, and counted in a Coulter counter. The 50% inhibitory concentration (IC50) was defined as the compound concentration required to reduce cell proliferation by 50%.

CEM cells = assay: Anti-proliferative activity, CEM lymphoblastic leukemia cells (Coulter counting); format: cell-based; conditions: Homo sapiens, CCRF-CEM; mean ± SD of three independent experiments; 96 h; read-out: Tumor cells IC50 CEM
From the text: as §2, §3, §4

MDA-MB-231 cells [2] = assay: Cell cycle analysis (propidium iodide, flow cytometry); format: cell-based, human; conditions: 24 h treatment
Procedure: Tubulin-binding agents interfere with mitotic spindle formation during cell division. […] Thus, we investigated whether 27 and 28 affect the progression of human breast cancer MDA-MB-231 cells through the cell cycle. […] In contrast, compounds 27 and 28 arrested the cell cycle in the M phase (mitosis) at concentrations as low as 0.03 and 0.1 μM (for compound 27 and 28 respectively).
(§5) Figure 6 Mechanism of action of the benzofurane derivatives. (A) Inhibition of cell cycle progression. MDA-MB-231 cells were treated with DMSO (control) or compounds 8, 27 or 28 for 24 h. Next, the cells were harvested, stained with propidium iodide (PI), and cell cycle distribution was evaluated by flow cytometry. Percentages of cells in the different phases of the cell cycle are indicated. (B) Caspase-3 activity. MDA-MB-231 cells were seeded in 48-well plates at 40,000 cells/cm². After 24 h, different concentrations of compounds 8, 27 or 28 and 2 µM of the caspase-3 substrate DEVD-NucView488 were added. After 16 h, the cells were incubated with 2 µg/ml Hoechst 33342 to stain the nucleus, and imaged. (C) Disruption of the vascular network. HMEC-1 cells were cultured on matrigel for 3 h to allow the formation of tube-like structures. Next, different concentrations of compounds were added. Upper panel: After 90 min, pictures were taken and the tubular network was scored (3: intact network, 0: network completely destroyed). Bars show average ± SEM (n = 4). Lower panel: Microscopic pictures of the tubular network 3 h after addition of compound.
MDA-MB-231 cells were seeded in 6-well plates at 125,000 cells/well in DMEM with 10% FBS. After 24 h, the cells were exposed to different concentrations of the compounds. After 24 h, the DNA of the cells was stained with propidium iodide using the CycleTEST PLUS DNA Reagent Kit (BD Biosciences, San Jose, CA). The DNA content of the stained cells was assessed by flow cytometry on a FACSCalibur flow cytometer and analyzed with CellQuest software (BD Biosciences) within 3 h after staining. Cell debris and clumps were excluded from the analysis by appropriate dot plot gating. Percentages of sub-G1, G1, S, and G2/M cells were estimated using appropriate region markers.

MDA-MB-231 cells [3] = assay: Caspase-3 activity / apoptosis in live cells (fluorescence microscopy); format: cell-based, human; conditions: 1 µM, after 24 h
Procedure: as §5
To confirm the capacity of compounds 27 and 28 to induce apoptosis, MDA-MB-231 cells were treated with the compounds for 24 h in the presence of NucView® 530 Caspase-3. This substrate is cleaved by active caspase-3 activity (the main executioner enzyme during apoptosis) to generate a fluorescent derivative that is analyzed using fluorescence microscopy.
MDA-MB-231 cells were seeded at 40,000 cells/cm². After 24 h, cells were incubated in Fluorobrite DMEM (Gibco), containing the compound and 2 µM of the caspase-3 substrate DEVD-NucView488 (Biotium, Hayward, CA). After 16 h, the DNA was stained with Hoechst33342 and the cells were imaged by fluorescence microscopy.

[4] = tested on: MDA-MB-231, CEM, HeLa and HMEC-1 cells; assay: Anti-proliferative activity, summary over tumor and endothelial cell lines; format: cell-based; conditions: Homo sapiens
Procedure: as §2, §4

A2780AD cells = assay: Anti-proliferative activity, A2780AD (MDR overexpressing P-glycoprotein) ovarian carcinoma cells; format: cell-based, human; conditions: Homo sapiens, A2780AD; P-glycoprotein overexpressing resistant line; mean ± standard error of three independent experiments; read-out: A2780 AD IC50
From the text: as §1

HMEC-1 cells [5] = assay: Disruption of a preformed vascular network on matrigel (tube formation); format: cell-based, human
Procedure: as §5
Another feature of colchicine-site binding agents is their ability to destroy a 3-dimensional network of endothelial cells. To determine the vascular disrupting capacity of compounds 27 and 28, HMEC-1 cells were seeded on top of matrigel. This tumor derived extracellular matrix induces within 3 h the rearrangement of endothelial cells into a vascular network. Compounds 27 and 28 caused a disruption of the tubular network in a concentration-dependent manner (Fig. 6C).
Wells of a 96-well plate were coated with 70 µl matrigel (10 mg/ml, BD Biosciences, Heidelberg, Germany) at 4 °C. After gelatinization at 37 °C during 30 min, HMEC-1 cells were seeded at 60,000 cells/well on top of the matrigel in 200 µl DMEM containing 10% FCS. After 3 h of incubation at 37 °C, when the endothelial cells had reorganized to form tube-like structures, the compounds were added. Ninety minutes later, the cultures were photographed at 100 × magnification and analyzed using digitalized analysis.

[6] = Endothelial cell, range stated in the conclusions, read-out: IC50 (antiproliferative activity against tumor and endothelial cells)
[7] = range over tumor and endothelial cell lines, read-out: IC50 values ranging (antiproliferative, all cell lines of Table 1)

CC(Nc1cccc2cc(COCCCO)oc12)=C1C(=O)CC(c2ccccc2)CC1=O (stereo not shown) [Compound 28, 2-(1-((2-((3-Hydroxypropoxy)methyl)benzofuran-7-yl)amino)ethylidene)-5-phenylcyclohexane-1,3-dione]
IC50 (A2780 cells): 38 ± 7 nM
IC50 (HMEC-1 cells [1]): 38 ± 3 nM
IC50 (CEM cells): 51 ± 18 nM
cells in the sub-G1 phase (indicative of apoptosis) (MDA-MB-231 cells [2]): caused an increase of cells in the sub-G1 phase
lowest concentration arresting the cell cycle in the M phase (MDA-MB-231 cells [2]): 0.1 µM
apoptotic rate (apoptotic cells, caspase-3 substrate) (MDA-MB-231 cells [3]): ~40%
IC50 [4, 6]: 8 to 31 nM
IC50 [4, 7]: 9 to 51 nM
IC50 (A2780AD cells): 76 ± 15 nM
disruption of the vascular (tubular) network (HMEC-1 cells [5]; 0.01 μM): antivascular effect was still evident
disruption of the vascular (tubular) network (HMEC-1 cells [5]; 0.1 μM): nearly completely abrogated the vascular network

COCc1cc2cccc(NC(C)=C3C(=O)CC(c4ccccc4)CC3=O)c2o1 (stereo not shown) [Compound 27, 2-(1-((2-(Methoxymethyl)benzofuran-7-yl)amino)ethylidene)-5-phenylcyclohexane-1,3-dione]
IC50 (A2780 cells): 23 ± 2 nM
IC50 (HMEC-1 cells [1]): 16 ± 2 nM
IC50 (CEM cells): 31 ± 2 nM
cells in the sub-G1 phase (indicative of apoptosis) (MDA-MB-231 cells [2]): caused an increase of cells in the sub-G1 phase
lowest concentration arresting the cell cycle in the M phase (MDA-MB-231 cells [2]): 0.03 µM
apoptotic rate (apoptotic cells, caspase-3 substrate) (MDA-MB-231 cells [3]): ~ 30%
IC50 [4, 6]: 8 to 31 nM
IC50 [4, 7]: 9 to 51 nM
IC50 (A2780AD cells): 39 ± 15 nM
disruption of the vascular (tubular) network (HMEC-1 cells [5]; 0.01 μM): antivascular effect was still evident
disruption of the vascular (tubular) network (HMEC-1 cells [5]; 0.1 μM): nearly completely abrogated the vascular network
